Results as given in patent US12433870B2, “Supramolecular photoprotection of a photosensitizer” (Northwestern University, priority 2019, dated 2025).

Columns and labels:
ExBox^4+ and DPP = assay: 1H NMR titration, host-guest association constant (1:1 binding model); conditions: 1H NMR titration in (CD3)2CO, 298 K
Method: The synthesis of ExBox•4Cl was carried out following our previously reported procedure^17. Solid DPP (0.46 mg, […]) was dissolved in Me2CO (1 mM, 1 mL) and added to a solution of ExBox•4Cl in H2O (1.0 mM, 1 mL). The mixture was sonicated for 15 min, Me2CO was removed in vacuum, and the H2O portion was passed through a 0.45-μm filter to yield 1:1 ExBox^4+⊃DPP complex (FIG. 1A) in water. Upon complex formation, the aqueous solution color changed to light orange-pink or tangerine. […] The resonances for the α and CH2 protons of ExBox^4+ were affected only slightly by the shielding effect of DPP as they are located at the corners and display only slight shifts in their […] spectra. This pattern is in excellent agreement with the inclusion of DPP inside ExBox^4+ in solution. […] The association constant (Ka) obtained from 1:1 binding model was calculated to be 12600±300 M^−1 from the chemical shifts of […] titrations experiments (FIG. 1B-1C) between ExBox^4+ and DPP in (CD3)2CO.
The ^1H NMR (298 K, 500 MHz) titration was performed by adding small volumes of a solution of DPP in Me2CO-d6 to a solution of ExBox•4PF6 in Me2CO-d6. […]
(CD3)2CO stock solutions of ExBox^4+ (0.4 mM) and DPP (5.4 mM) were prepared. […] The NMR spectra were recorded after each addition of DPP solution. […]

[1] = pH-dependent release of DPP from the complex (fluorescence and transient absorption, pH 4.5); format: physicochemical
Text: At low pH, DPP can be protonated. Therefore, the electrostatic repulsion between the cationic DPP and the tetracationic host ExBox^4+ can trigger release of DPP in H2O. Indeed, when aqueanous solution of ExBox^4+⊃DPP is acidified with HCl (pH 4.5), protonated DPP was released in H2O leading to 17-fold increment of fluorescence signals (FIG. 4A). […] The residual population survived for several microseconds and has a transient absorption spectrum of ^3*DPP; the […] (FIGS. 4D-4E) approximates the decay of the long-lived triplet state in aerated, room temperature aqueous solution. […] We estimate this fraction to be approximately 30% at the ˜20 μM concentration of the transient absorption experiments.
The setup for transient absorption measurements has been described elsewhere.^3 Photoexcitation pulses at 414 nm were obtained through a beta barium borate (BBO) crystal doubling the fundamental, and the 575 nm pulses were generated with a laboratory-constructed optical parametric amplifier. The pulse power for photoexcitation was attenuated to ˜1 μJ/pulse, using neutral density filters. The pump polarization was randomized employing a commercial depolarizer (DPU-25-A, Thorlabs, Inc.) to eliminate any orientational dynamics contributions from the experiment. […]

A2780 cells = assay: In vitro PDT efficacy, MTT assay after visible light irradiation; format: cell-based, human
Method: A2780 cells (human ovarian cancer cell line) and MCF-7 cells (human breast adenocarcinoma cell line) obtained from Sigma-Aldrich and American Type Culture Collection (ATCC, Rockville, MD, USA), respectively were utilized for cell culture experiments. These cells were cultured in Dulbecco's Modified Eagle's Medium (DMEM) supplemented with 10% fetal bovine serum (FBS), penicillin (100 IU/mL) and streptomycin (100 μg/mL) at 37° C. in the presence of air (95%) and CO2 (5%).
A2780 or MCF-7 cells (2×10^5 cells/mL, 100 μL) were seeded in each well of a black 96-well plate. Stock solution of ExBox^4+⊃DPP in PBS (1 mM, 10 μL) was added to each well to achieve working concentrations and incubated for 12 h. After incubation, wells were washed with PBS, added with 100 μL of DMEM and immediately irradiated with visible light using Max-303 Xenon Light Source (385-740 nm, Asahi Spectra) at different light intensities (5-50 mW) for 1 to 15 min. Following irradiation, cells were incubated overnight and then added with MTT (5 mg/mL in PBS, 10 μL). After 4 h incubation with MTT, media from each well was pipetted out, formazan crystals deposited on the plate were dissolved in 200 μL of Me2SO, and the absorbance of each well was measured using a microplate reader at 560 nm. All the samples were analyzed in quadruplicates.
The percentage cell viability was calculated using the following formula: % cell viability=(OD of treated sample/OD of untreated sample)*100.

SMILES: C1=Cc2nc1cc1ccc([nH]1)c(-c1ccccc1)c1nc(cc3ccc([nH]3)c2-c2ccccc2)C=C1.c1cc2ccc1C[n+]1ccc(cc1)-c1ccc(cc1)-c1cc[n+](cc1)Cc1ccc(cc1)C[n+]1ccc(cc1)-c1ccc(cc1)-c1cc[n+](cc1)C2 [ExBox^4+⊃DPP]
- association constant (Ka) (ExBox^4+ and DPP): 12600 ± 300 M⁻¹
- increment of fluorescence signals on release of protonated DPP ([1]; aqueous solution acidified with HCl (pH 4.5) versus pH 7, λex=414 nm): 17 fold
- fraction of the complex population with DPP released (electron transfer turned off) ([1]; pH 4.5, ~20 μM, transient absorption): approximately 30%
- killing of A2780 cells (A2780 cells; 10 μM, 10 min visible light irradiation, 0.078 and 0.156 J cm^−2): > 95%
- irradiation time to kill >90% A2780 cells (A2780 cells; 0.078 J cm^−2 light dose, 5 μM): 10 min
- killing of A2780 cells at other concentrations (A2780 cells; 0.1, 0.05 and 0.01 μM, 10 min irradiation, 0.078 and 0.156 J cm^−2): less efficient
- irradiation time to kill >90% of cells (A2780 cells; 0.156 J cm^−2 light dose, 10 μM): 2 min
- effect on cell viability (MTT) (A2780 cells; 1.25 and 0.625 μM, light doses 0.078 and 0.156 J cm^−2): almost no effect on cell viability
- A2780 cell-death (MTT) (A2780 cells; 2.5, 5 and 10 μM, light doses 0.078 and 0.156 J cm^−2): > 90%
- efficacy at light dose 0.032 J cm^−2 (MTT) (A2780 cells; light dose 0.032 J cm^−2): efficacious only at 5 and 10 μM concentrations
- effect on cell viability (MTT) (A2780 cells; light dose, same concentrations): no effect on cell viability
